# B1: IFN-γ: recombinant IFN-γ protein (Peprotech) (protein, UniProt P01579 24-161, looked up)
# Interferon gamma: QDPYVKEAENLKKYFNAGHSDVADNGTLFLGILKNWKEESDRKIMQSQIVSFYFKLFKNFKDDQSIQKSVETIKEDMNVKFFNSNKKKRDDFEKLTNYSVTDLNVQRKAIHELIQVMAELSPAAKTGKRKRSQMLFRG
# Key:
# [1] = system: bone marrow-derived macrophages (BMDMs); test: Real-time imaging of cell death (propidium iodide, INCUCYTE) in BMDMs; type: cell-based, mouse; conditions: for inhibition of cell death in response to TNF-α and IFN-γ treatment: wild-type BMDMs co-treated with 1 mM L-NAME or 100 μM 1400W; for induction of cell death in BMDMs: standard cytokine concentrations (25 ng/mL TNF-α, 50 ng/mL IFN-γ)
# [2] = system: colon cancer and melanoma cell lines; test: NO inhibition of TNF-α plus IFN-γ-induced cancer cell death; type: cell-based, human; conditions: 1 mM L-NAME or 100 μM 1400W
# Method: Cell Culture and Stimulation Methods. […] Cancer cells were seeded a day before stimulation. On the day of stimulation, the cells were washed once with warm and sterile DPBS, followed by treatment with different cytokines for 48 hours. The concentration of the cytokines used were 25 ng/mL of IL-6 (Peprotech), IL-8 (Peprotech), IL-18 (R&D), IL-15 (Peprotech), IL-1α (Peprotech), IL-1β (Peprotech), IL-2 (Peprotech), TNF-α (Peprotech), and IFN-γ (Peprotech). For the inhibition of nitric oxide (NO), cancer cells were co-treated with 1 mM of L-NAME hydrochloride (TOCRIS) or 100 μM of […] dihydrochloride (Enzo Life Sciences) along with the cytokines. For inhibition of the JAK signaling pathway, the cancer cells were co-treated with 5 μM of baricitinib (Achemblock) all through the experiment. Cell Death Analysis. The kinetics of cell death were measured using a two-color INCUCYTE® S3 imaging system (Essen Biosciences). […] A series of images were acquired at 1-hour time intervals for up to 48 hours post-treatment with a 20× objective and analyzed using the INCUCYTE® S3 software, which allows precise analysis of the number of dye-positive dead cells present in each image. […]
# BMDMs = test: Immunoblot analysis of cell death effectors in BMDMs; type: cell-based, mouse; conditions: for cleavage of caspase-3, -7 and -8: single cytokines compared with the combination
# [3] = system: HCT-116 colon cancer cells; test: Western blot of PANoptosis markers in HCT-116; type: cell-based, human
# Method: Western Blot Analysis. For the western blot analyses of caspases, cancer cells were seeded a day before stimulation at a density of 0.5×10^6 cells/well in 6-well cell culture plates. The proteins from the indicated cell types were collected by combining cell lysates with culture supernatants with caspase lysis buffer (with 1× protease inhibitors, 1× phosphatase inhibitors, 10% NP-40, and 25 mM DTT) and 4× sample loading buffer (containing SDS and 2-mercaptoethanol). For the western blot analysis of all other signaling proteins, the cells were lysed in RIPA buffer, supplemented with protease inhibitor and phosphoStop as per the manufacturer's instructions and sample loading buffer. […]
# [4] = In vivo TNF-α and IFN-γ-induced inflammatory shock (mortality, serum chemistry, blood counts, flow cytometry, histopathology); design: species or system mice; conditions: i.p. 10 μg TNF-α, 20 μg IFN-γ, or both
# Method: In vivo TNF-α and IFN-γ-Induced Inflammatory Shock. Six- to eight-week-old mice of the indicated genotypes were injected intraperitoneally with 10 μg TNF-α alone, 20 μg IFN-γ alone, or TNF-α+IFN-γ diluted in endotoxin-free PBS. Animals were under permanent observation, and survival was assessed every 30 minutes. Blood was collected 5 hours after cytokine injection. Blood composition was analyzed using an automated hematology analyzer. Serum lactate dehydrogenase (LDH), alanine aminotransferase (ALT), aspartate aminotransferase (AST), blood urea nitrogen (BUN), and ferritin were analyzed by colorimetry using respective kits (LDH, ALT, AST, and BUN, all from HORIBA; and ferritin from Abcam) according to the manufacturer's instructions.
# Flow Cytometry Methods. Peripheral blood was mixed with ACK lysis buffer for 3 minutes to lyse the red blood cells (RBCs). The cells were then stained with monoclonal antibodies for the following markers for flow cytometry: CD11b from eBioscience; F4/80, Ly6C, and Ly6G from BioLegend; and CD19, TCRb, and CD45.2 from Tonbo Biosciences. […]
# Histopathology Methods. […] The number of cleaved caspase-3- and TUNEL-positive cells in five high power fields (20×) were counted per mouse.
# COLO-205 cell tumors = test: NSG mouse xenograft tumor model, intratumoral cytokines; type: in vivo, NSG mice; conditions: intra-tumoral administration on day 12, 14 and 16 post-transplantation
# Method: NSG Mouse Xenograft Tumor Model. The NSG mice (NOD/SCID-gamma null mouse strain that lacks […]) were used as the model recipients for the subcutaneous transplantation of human COLO-205 cancer cells. Briefly, 8- to 10-week-old NSG mice were shaved on their lower backs and transplanted with 2×10^6 COLO-205 cells in 200 μl of medium prepared by mixing (1:1) RPMI and a solubilized basement membrane preparation sold under the tradename MATRIGEL® (BD Bioscience). The mice were monitored regularly for engraftment and growth of COLO-205 cancer cell tumors. The recipient mice were divided into four groups and treated intratumorally with injection of the indicated cytokines or PBS (groups: (i) PBS, (ii) TNF-α, (iii) IFN-γ, or (iv) TNF-α(and IFN-γ) on day 12, 14 and 16 post-transplantation of the tumor cells. The tumor growth was monitored and measured using digital calipers, and the volume of the tumors were calculated using the formula: volume=(length×width^2)×½.
Molecule,inhibition of cell death in response to TNF-α and IFN-γ treatment [1],inhibition of cancer cell death induced by TNF-α plus IFN-γ treatment [2],induction of cell death in BMDMs [1],cleavage of GSDMD and GSDME (combination: GSDME) (BMDMs),phosphorylation of MLKL (BMDMs),"cleavage of caspase-3, -7 and -8 (BMDMs)",activation of biochemical markers of PANoptosis in HCT-116 [3],mortality in mice [4],further results
"CC(=N)NCc1cccc(CN)c1 [1400W, N-[[3-(aminomethyl)phenyl]methyl]-ethanimidamide]",inhibited cell death,failed to inhibit,–,–,–,–,–,–,–
"COC(=O)[C@@H](N)CCCNC(=N)N[N+](=O)[O-] [L-NAME, N5-[imino(nitroamino)methyl]-L-ornithine methyl ester]",inhibited cell death,failed to inhibit,–,–,–,–,–,–,–
[NH-]c1c[n+](N2CCOCC2)no1 [SIN-1],–,–,–,–,–,–,–,–,"kinetics of cell death induced by NO donor ([1]; wild-type BMDMs, increasing concentrations of SIN-1): proportional to the NO concentration"
IFN-γ: recombinant IFN-γ protein (Peprotech),–,–,failed to induce cell death,did not induce robust cleavage,failed to induce robust MLKL phosphorylation,reduced cleavage,only weak activation,–,–
TNF-α,–,–,failed to induce cell death,did not induce robust cleavage,failed to induce robust MLKL phosphorylation,reduced cleavage,only weak activation,did not cause significant mortality,tumor weight (COLO-205 cell tumors): minor but significant reduction
B1,–,–,–,–,–,–,–,did not cause significant mortality,–
